# From patent publication US5407936A, “Benzimidazole derivative, process for preparing the same, antiemetic agent containing the same as active ingredient and intermediate compound for preparing the same” (priority 1991, dated 1995)
# Key:
# [1] = tested on: vomiting caused by the administration of the chemotherapeutics such as cisplatin; details: Cancer. Chemother. Pharmacol., 23, 389-391 (1989); cited from earlier work
# [2] = tested on: cisplatin-induced vomiting; test: Preventive and therapeutic effects against vomiting induced by cisplatin; assay type: in vivo, male ferrets; details: i.v.; for Inhibitory rate, preventive effect: 5 minutes before cisplatin (10 mg/kg), vomiting counted for 4 hours; for Inhibitory rate, therapeutic effect: after appearance of vomiting (about 80 minutes after cisplatin 10 mg/kg), counted for 4 hours
# Experimental: Preventive and therapeutic effects against vomiting induced by cisplatin:
# The experiment was conducted in accordance with the method by Costall et al. [Neuropharmacology, 26, 1321-1326 (1987)].
# That is, male ferrets (weighing 1.0 to 1.6 kg, three animals in each group) underwent an implant operation of cannula at the jugular vein for intravenous administration. For evaluating the preventive effects, the test compounds dissolved in a physiological saline or in a physiological saline containing 5% ethanol or a physiological saline (control) were intravenously administered to the ferrets three days after the operation, then after 5 minutes, cisplatin (10 mg/kg) dissolved in a physiological saline was intravenously administered to the ferrets over 30 seconds, and a number of vomiting caused between just after the administration of cisplatin and 4 hours after the administration was measured. As to the therapeutic effects, cisplatin (10 mg/kg) dissolved in a physiological saline was intravenously administered to the ferrets three days after the operation over 30 seconds. After appearance of vomiting (about 80 minutes after the administration of cisplatin), the test compounds dissolved in a physiological saline or in a physiological saline containing 5% ethanol or a physiological saline (control) were intravenously administered to the ferrets and then a number of vomiting occurred during 4 hours thereafter was counted. The inhibitory rate was calculated by the following formula: Inhibitory rate (%)={1-(mean number of vomiting in the group administered with the test compound/mean number of vomiting in the control group)}×100
# [3] = target: T1, 5-HT3 receptor (Rattus norvegicus, UniProt P35563); test: 5-HT3 antagonistic activity: antagonism of Bezold-Jarisch reflex (reflective bradycardia) induced by 5-HT; assay type: in vivo, S.D. male rats; details: for Duration time of 5-HT3 antagonistic activity: i.v., time until inhibitory rate of reflective bradycardia became 20% or less; for ED50: rat, iv, read-out: ED50 [95% Confidence limits], antagonistic activity against Bezold-Jarisch reflex
# T1 construct: S.D. male rats (weighing 200 to 350 g) were anesthetized; from tissue; host or cells: whole anesthetized S.D. male rats (in vivo; endogenous receptor)
# T1 sequence (P35563 24-483): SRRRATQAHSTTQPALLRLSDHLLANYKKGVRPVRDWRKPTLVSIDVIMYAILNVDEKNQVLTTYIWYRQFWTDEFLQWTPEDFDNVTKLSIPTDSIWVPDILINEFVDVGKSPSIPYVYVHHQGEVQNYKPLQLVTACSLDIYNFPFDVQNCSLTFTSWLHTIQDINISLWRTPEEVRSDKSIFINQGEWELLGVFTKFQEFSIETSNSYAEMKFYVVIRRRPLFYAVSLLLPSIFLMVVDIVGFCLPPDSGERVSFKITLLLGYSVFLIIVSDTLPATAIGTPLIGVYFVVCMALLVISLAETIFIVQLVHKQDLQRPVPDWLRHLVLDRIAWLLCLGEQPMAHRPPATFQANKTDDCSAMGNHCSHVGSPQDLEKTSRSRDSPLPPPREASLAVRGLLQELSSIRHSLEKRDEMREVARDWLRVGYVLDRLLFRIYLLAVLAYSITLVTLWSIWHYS
# Experimental: 5-HT3 antagonistic activity:
# The 5-HT3 antagonistic activity was measured in accordance with the method by Collins et al. [Br. J. Pharmacol., 80, 570P (1983)] using as an index the inhibitory activity against reflective bradycardia [Bezold-Jarisch reflex] induced by 5-HT.
# That is, S.D. male rats (weighing 200 to 350 g) were anesthetized by intraperitoneal administration of urethane ([…]) and introduced with cannula into the carotid and the pulse frequency was measured. 5-HT was dissolved in physiological saline and intravenously administered (0.04 mg/kg). The test compounds were dissolved in physiological saline or physiological saline containing 5% ethanol and intravenously administered five minutes before the administration of 5-HT.
# ED50 values were obtained from a dose-response curve of inhibitory rate of reflective bradycardia by the test compounds and the 5-HT3 antagonistic activity was compared.
# In addition, the test compounds (about 25 times amount of the above ED50 value) and 5-HT were intravenously administered in the same manner as mentioned above and thereafter 5-HT (0.04 mg/kg) was intravenously administered with the passage of time.
# [4] = tested on: ddY Male mice; test: Acute toxicity; assay type: in vivo; details: 100 mg/kg intravenously; observed for 7 days; five mice per group
# Excerpt: The same as in Experiment 2
Structure (SMILES),Inhibition of vomiting caused by chemotherapeutics such as cisplatin [1],"Inhibitory rate, preventive effect ([2]; 0.1 mg/kg)","Inhibitory rate, therapeutic effect ([2]; 0.1 mg/kg)",Duration time of 5-HT3 antagonistic activity ([3]; dose 100 μg/kg),ED50 [3],Death of animals [4],"Inhibitory rate, preventive effect ([2]; 0.01 mg/kg)","Inhibitory rate, therapeutic effect ([2]; 0.01 mg/kg)",Duration time of 5-HT3 antagonistic activity ([3]; dose 1.0 μg/kg),"5-HT3 antagonistic activity compared to the compound of the present invention ([3]; in words, reason why duration was not measured)"
"Cc1nccn1CC1CCc2c(c3ccccc3n2C)C1=O (centres unmarked) [Reference compound, Ondansetron]",effective,31%,77%,2 h,4 µg/kg,all animals were dead,–,–,–,–
"CC(C)n1c(N2CCN(C)CC2)nc2cc(Cl)c(N)cc21.O=C(O)/C=C\C(=O)O.O=C(O)/C=C\C(=O)O [Compound 2, 6-Amino-5-chloro-1-isopropyl-2-(4-methyl-1-piperazinyl)benzimidazole dimaleate]",–,–,–,–,–,–,85%,100%,> 8 h,–
"CN1CCN(c2nc3ccccc3n2C)CC1 [Compound A, 1-Methyl-2-(4-methyl-1-piperazinyl)benzimidazole]",–,–,–,–,> 3 µg/kg,–,–,–,–,quite low as compared to the compound of the present invention
"CC(C)n1c(N2CCN(C)CC2)nc2cc(Cl)c(N)cc21 [Compound 1, 6-Amino-5-chloro-1-isopropyl-2-(4-methyl-1-piperazinyl)benzimidazole]",–,–,–,–,–,–,100%,100%,> 8 h,–
